Experimental data published in patent publication US12650432B2, “SCARA5 and DIO2 as biomarkers for miscarriage and implantation failure” (The University of Warwick, priority 2019, dated 2026).
“And” between values parts separate entries of the source, which are not always exact repeats. Equal entries are not always repeated. Marks after values point to notes of the source that are not given here.

How the values were obtained:
[1] = test system: endometrial stromal cells (EnSC); experiment: Colony-forming unit (CFU) assay on EnSC from paired endometrial biopsies, randomised placebo-controlled trial in RPL patients; assay type: in vivo, human
Excerpt: Participants were recruited from a tertiary recurrent miscarriage clinic at UHCW NHS Trust. […] Participants agreed to actively avoid pregnancy and use barrier contraception for the duration of the trial.
Participants were instructed to take the capsules once daily from the day of the baseline biopsy for 3 menstrual cycles until the second biopsy was taken. The control group were allocated identical placebo capsules also supplied by Sharp Clinical Services and instructed to take these exactly as the intervention group.
(§1) Following written informed consent, participants were given a digital home ovulation test kit (Clearblue, Geneva, Switzerland), an emergency contact card, and barrier contraception. Participants then attended the clinic 7-10 days after the luteinizing hormone (LH) surge (LH+7-10). Following a negative urine pregnancy test, a transvaginal pelvic ultrasound scan was performed. Endometrial thickness was defined as the maximal endometrium diameter measured in a mid-sagittal plane. Next, an endometrial biopsy was obtained using a Wallach Endocell® endometrial sampler. The sample, designated ‘baseline biopsy’, was immediately portioned with one part stored in RNALater Stabilization Solution (Sigma-Aldrich, Dorset, UK) one part snap frozen in liquid nitrogen, one part fixed in 10% formalin for immunohistochemistry, and the remainder placed in 10% DMEM/F12 for isolation of primary endometrial stromal cells (see below). Following randomisation (see below), trial medication was provided and all participants attended two follow-up clinics at 4 weeks±4 day intervals. At these follow-up visits a urine pregnancy test was carried out, symptom diaries were reviewed, adverse events reported, and willingness for continued participation confirmed. At the second follow-up visit, participants were provided with another home ovulation test kit. In the third cycle, participants attended the clinic on LH+7-10 for a repeat transvaginal ultrasound scan with measurement of endometrial thickness and endometrial biopsy. The sample, designated ‘second biopsy’, was processed identically to the baseline biopsy. Trial medication was stopped on the day of the second biopsy.
Primary EnSC were isolated according to our published protocol (65). Briefly, samples were washed in DMEM/F-12 medium (Invitrogen), finely minced and enzymatically digested with 0.5 mg/ml collagenase (Sigma-Aldrich) and 0.1 mg/ml deoxyribonuclease type I (Roche, Burgess Hill, UK) for 1 hour in 5% CO2 at 37° C. Stromal and epithelial fractions were separated and cryopreserved in 10% DMSO in dextran-coated charcoal-stripped fetal bovine serum (DCC; 2 ml per vial; Invitrogen), with the stromal fraction split into two or three vials depending on the biopsy size. After controlled cooling at −80° C. overnight, samples were transferred to liquid nitrogen for storage.
All CFU assays were conducted in batches, consisting of paired primary endometrial stromal cells isolated from baseline and second biopsies from 3 or 4 participants. CFU assays were established as described previously (66). Briefly, cryopreserved stromal cells were thawed for 3 minutes at 37° C. and then transferred immediately into pre-warmed growth medium (DMEM-F12 medium containing 10% DCC supplemented with 1% L-Glutamine and 1% antibiotic-antimycotic mix; Invitrogen). Cells were pelleted by centrifugation at 276×g for 5 minutes, supernatant was aspirated and cells were resuspended in 10 ml growth medium. Viable stromal cells were counted in trypan blue on a Neubauer Improved haemocytometer and seeded at clonal density (53 cells/cm2) onto fibronectin-coated 6-well plates (10 μg/ml in PBS; Sigma-Aldrich) in growth medium supplemented with […] basic fibroblast growth factor (Sigma Aldrich). Three wells, containing 500 cells each, were seeded per biopsy. Plates were cultured in 5% CO2 at 37° C., and left undisturbed for 3 days after which growth was monitored to ensure colonies arose from single cells.

PRL = experiment: RT-qPCR of PRL transcript in paired endometrial biopsies; assay type: in vivo, human; conditions: second vs baseline biopsy, oral 100 mg daily for 3 cycles, n=16
Protocol: (§2) RNA was extracted from RNAlater preserved tissue using the RNeasy Lipid Tissue Mini Kit (QIAGEN, Manchester, UK), with on-column DNase treatment, according to the manufacturer's instructions. RNA was assessed using a Nanodrop ND-1000 spectrophotometer and 1 μg RNA used for reverse transcription, performed using the Quantitect Reverse Transcription Kit (QIAGEN) according to manufacturer's instructions. Thermal cycling was performed on a QuantStudio 5 Real-Time PCR System (ThermoFisher, Paisley, UK), using PrecisionPlus 2× Mastermix (Primer Design, Southampton, UK), 300 nM each forward and reverse primers and 1 μl cDNA. L19 was used as a reference gene and data were analysed using the Pfaffl method (68).
(§3) Induction of PRL and IGFBP1 expression is widely used to monitor the decidual response in cultured EnSC (14).

IGFBP1 = experiment: RT-qPCR of IGFBP1 transcript in paired endometrial biopsies; assay type: in vivo, human; conditions: second vs baseline biopsy, oral 100 mg daily for 3 cycles, n=16
Protocol: as §2, §3

DIO2 = experiment: RT-qPCR of DIO2 mRNA (senescent decidual cell marker) in paired endometrial biopsies; assay type: in vivo, human
Protocol: as §2, §3

SCARA5 = experiment: RT-qPCR of SCARA5 mRNA (decidual cell marker) in paired endometrial biopsies; assay type: in vivo, human; conditions: second vs baseline biopsy, oral 100 mg daily for 3 cycles, n=16
Protocol: as §2, §3

[2] = Adverse events and side effects in trial participants; assay type: in vivo, human
Protocol: as §1
(§4) Participants were provided with compliance and symptom diaries at each visit. Diaries were assessed at every follow-up or biopsy visit. Acceptability and satisfaction of the study was assessed with a Likert scale-based questionnaire completed by participants after their final visit. Participants who conceived after completion of the study were requested to contact the trial team and outcome of the first pregnancy within one year of study completion was recorded.

[3] = Outcome of first pregnancy within 12 months after study completion; assay type: in vivo, human; conditions: sitagliptin group
Protocol: as §4

[4] = granulocyte-CSF-dependent mobilisation of BMDC followed by sitagliptin 100 mg for 28 days; cited from earlier work
[5] = test system: haematopoietic stem and progenitor cells; conditions: up to 600 mg twice daily, after umbilical cord blood transplantation; cited from earlier work
[6] = sitagliptin group (n = 16), baseline biopsy before treatment

Structure (SMILES): N[C@@H](CC(=O)N1CCn2c(nnc2C(F)(F)F)C1)Cc1cc(F)c(F)cc1F [sitagliptin]
- Second biopsy CFU count, Median (IQR, Range) ([1]; RPL patients, oral 100 mg once daily for 3 menstrual cycles): 14.0 (8.0-29.0, 3-145)^‡ per 1500 EnSC
- Median increase in CFU count, second compared to baseline biopsy ([1]; after 3 cycles of sitagliptin): +7 per 1500 EnSC
- Mean CFU count in second biopsy higher than placebo group, adjusted for baseline CFU count ([1]; after 3 cycles, oral 100 mg daily): 51%
- Mean CFU count, second biopsy ([1]; all data, RPL patients, oral 100 mg once daily for 3 menstrual cycles): 27.67 per 1500 EnSC
- Mean CFU count, second biopsy ([1]; all data, RPL patients, oral 100 mg once daily for 3 menstrual cycles, listed as Sitagliptin): 27.7 (35.8) per 1500 EnSC and 27.7 per 1500 EnSC
- Average increase in CFU counts compared to baseline biopsy ([1]; sitagliptin given for 3 menstrual cycles): 68%
- Baseline CFU count, Mean (SD) [1, 6]: 16.1 (19.6) per 1500 EnSC
- Baseline CFU count, Median (IQR, Range) [1, 6]: 8.5 (4.5-17.8, 1-74) per 1500 EnSC
- Mean CFU count, second biopsy ([1]; subgroup excluding women with outlying CFU counts (>20 colonies per 1500 cells), after 3 cycles): 14.42 per 1500 EnSC
- PRL transcript level normalized to L19 (PRL): not significantly different
- IGFBP1 transcript level normalized to L19 (IGFBP1): not significantly different
- DIO2 mRNA level, median, second biopsy (DIO2; after 3 cycles oral 100 mg daily, n=16, normalized to L19, P=0.0182 vs baseline): 3.86 a.u.
- DIO2 mRNA level, median, baseline biopsy (DIO2; sitagliptin group before treatment, n=16, normalized to L19): 5.09 a.u.
- SCARA5 mRNA level normalized to L19 (SCARA5): not altered significantly
- Adverse events, overall statement ([2]; pre-pregnancy sitagliptin treatment in RPL patients): no adverse events were reported
- Chills, events ([2]; sitagliptin group n = 19): 1
- Diarrhoea, events ([2]; sitagliptin group n = 19): 0
- Dizziness, events ([2]; sitagliptin group n = 19): 2
- Dizziness, participants ([2]; sitagliptin group n = 19): 1
- Dry Nose, events ([2]; sitagliptin group n = 19): 0
- Dry mouth, events ([2]; sitagliptin group n = 19): 1
- Headache, events ([2]; sitagliptin group n = 19): 10
- Headache, participants ([2]; sitagliptin group n = 19): 4
- Low Mood, events ([2]; sitagliptin group n = 19): 1
- Mouth ulcers, events ([2]; sitagliptin group n = 19): 0
- Myalgia, events ([2]; sitagliptin group n = 19): 1
- Nausea, events ([2]; sitagliptin group n = 19): 1
- Night sweats, events ([2]; sitagliptin group n = 19): 1
- Nose bleed, events ([2]; sitagliptin group n = 19): 0
- Rash, events ([2]; sitagliptin group n = 19): 0
- Sore Throat, events ([2]; sitagliptin group n = 19): 1
- Stuffy Nose, events ([2]; sitagliptin group n = 19): 0
- Thinning of hair, events ([2]; sitagliptin group n = 19): 0
- Thirst, events ([2]; sitagliptin group n = 19): 1
- UTI, events ([2]; sitagliptin group n = 19): 1
- Termination of pregnancy at 16 weeks for a fetal abnormality [3]: one
- Live births ([3]; 12 pregnancies): 8
- Spontaneous pregnancy losses before 12 weeks of gestation ([3]; 12 pregnancies): 3
- Cardiac function [4]: failed to improve cardiac function
- Engraftment of haematopoietic stem and progenitor cells in bone marrow [5]: improve engraftment of haematopoietic stem and progenitor cells in bone marrow
